The values that follow come from patent US20120121591A1 (priority 2009, published 2012).

The target of test [1] is hKv1.3 (Homo sapiens, UniProt P22001). Put plainly: cell-based. Format: cell-based.
Test [2] deals with hKv1.1 (Homo sapiens, UniProt Q09470). Put plainly: cell-based. The settings on record: Kv1.1 (IWQ) IC50 (nM, Avg).
Test [3] concerns IL-2 secretion from T cells in human whole blood. Format: cell-based.
The test system of test [4] is IFN-g secretion from T cells in human whole blood. It is filed as cell-based.

Structures are written as SMILES. Positions of bridges follow the written chain, without caps; N, C: chain ends. Non-standard residues stand in square brackets, D forms with d. Residues, ends and D or L forms follow the SMILES beside them. Nva = CCC[C@H](N)C(=O)O

Chain of hKv1.3 (P22001 whole entry): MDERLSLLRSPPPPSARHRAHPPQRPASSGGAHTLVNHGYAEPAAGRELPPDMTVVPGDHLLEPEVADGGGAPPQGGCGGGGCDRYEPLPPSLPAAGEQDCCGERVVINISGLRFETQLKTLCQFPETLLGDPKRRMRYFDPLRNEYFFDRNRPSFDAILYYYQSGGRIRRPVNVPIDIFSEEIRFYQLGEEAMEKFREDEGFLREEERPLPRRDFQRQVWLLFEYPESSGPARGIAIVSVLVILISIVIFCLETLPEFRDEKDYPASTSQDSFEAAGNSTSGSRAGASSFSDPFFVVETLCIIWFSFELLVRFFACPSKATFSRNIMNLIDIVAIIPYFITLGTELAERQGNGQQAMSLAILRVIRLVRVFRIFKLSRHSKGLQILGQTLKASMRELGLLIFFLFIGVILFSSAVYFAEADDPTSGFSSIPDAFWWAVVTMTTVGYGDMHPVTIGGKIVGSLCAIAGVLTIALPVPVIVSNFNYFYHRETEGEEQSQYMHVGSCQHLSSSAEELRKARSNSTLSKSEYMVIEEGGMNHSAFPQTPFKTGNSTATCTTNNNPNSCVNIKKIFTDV
Chain of hKv1.1 (Q09470 whole entry): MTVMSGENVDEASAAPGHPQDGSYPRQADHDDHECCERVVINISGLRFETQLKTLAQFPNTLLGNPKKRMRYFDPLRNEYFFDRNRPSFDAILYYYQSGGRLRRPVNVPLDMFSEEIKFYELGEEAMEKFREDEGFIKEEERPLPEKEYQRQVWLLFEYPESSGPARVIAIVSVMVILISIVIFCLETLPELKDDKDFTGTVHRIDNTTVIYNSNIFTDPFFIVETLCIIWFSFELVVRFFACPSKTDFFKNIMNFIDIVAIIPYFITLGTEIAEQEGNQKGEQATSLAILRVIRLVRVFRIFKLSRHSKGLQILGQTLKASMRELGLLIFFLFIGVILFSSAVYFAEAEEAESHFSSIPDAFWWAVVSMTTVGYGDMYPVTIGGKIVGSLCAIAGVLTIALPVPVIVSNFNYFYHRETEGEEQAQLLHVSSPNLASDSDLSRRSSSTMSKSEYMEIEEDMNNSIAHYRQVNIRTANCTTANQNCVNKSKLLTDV

As to `CCC[C@@H]1NC(=O)[C@H](CO)NC(=O)[C@H]([C@@H](C)O)NC(=O)[C@H](CCCNC(=N)N)NC(=O)[C@@H]2CSSC[C@@H]3NC(=O)[C@H]([C@@H](C)O)NC(=O)[C@H](CCCCN)NC(=O)[C@H](CCCNC(=N)N)NC(=O)[C@H](CSSC[C@H](NC(=O)[C@H](CCC(=O)O)NC(=O)[C@H](CO)NC(=O)[C@H](C(C)C)NC(=O)[C@@H]4CCCN4C(=O)[C@H]([C@@H](C)CC)NC(=O)[C@H](CC(C)C)NC(=O)[C@H](CC(=O)O)NC(=O)[C@H](CCCCN)NC(=O)[C@@H](NC(=O)[C@@H](NC(=O)[C@@H](N)CCCNC(=N)N)[C@@H](C)O)CSSC[C@@H](C(N)=O)NC(=O)[C@H](CO)NC(=O)CNC3=O)C(=O)N[C@@H]([C@@H](C)O)C(=O)N[C@@H](CC(=O)O)C(=O)N[C@@H]([C@@H](C)CC)C(=O)N[C@@H](CCCCN)C(=O)N2)NC(=O)[C@H](CC(C)C)NC(=O)[C@H](CC(N)=O)NC(=O)[C@H](CC(C)C)NC(=O)[C@H](CCCNC(=N)N)NC(=O)[C@H](Cc2ccc(O)cc2)NC(=O)[C@H](CCCCN)NC1=O` [[Lys16, Nva21]HmK-amide] (H-RTCKDLIPVSECTDIKCRTS[Nva]KYRLNLCRKTCGSC-NH2; disulfide 3-35, 12-28, 17-32), in test [1], the “Kv1.1/Kv1.3 Selectivity Ratio” value amounted to 0.025. Further, the IC50 (usually the concentration that inhibits the measured activity by half) in test [1] (Kv1.3 (IWQ) IC50 (nM, Avg)) worked out at 23 nM; in test [2], 0.58 nM; in test [3] (read-out: WB (IL-2) IC50 (nM, Avg)) it was 6.39 nM; in test [4] (read-out: WB (IFNg) IC50 (nM, Avg)), 9.83 nM. The “WB (IL-2) Potency Relative to ShK” value in test [3] worked out at 148.53. For the same compound, the “WB (IFNg) Potency Relative to ShK” value in test [4] is recorded as 188.96.
